In this assay the test system is RAK3599 strain. The assay is described as follows: Investigation with AID and aY-AID culture medium (FIGS. 29 to 39). It counts as cell-based, Saccharomyces cerevisiae. The following applies: for effect on proliferation when added at high concentrations: up to 1% or up to 0.2500%; for preferred concentration / content: AID or aY-AID culture medium. As to the method: As shown in the following, an investigation was conducted into concentrations of each amino acid and a substitution potential of pantothenic acid for the amino acid in the AID culture medium. A suitable YPD culture medium was used as a control.
Next, the amino acids asparagine, isoleucine, phenylalanine, and valine were each adjusted to a culture medium additive concentration of […], 0.0312%, 0.0625%, 0.1250%, and 0.2500%, and OD600 was measured after 24 hours.
Isoleucine concentration in the aY-AID culture medium was adjusted to 0, 0.01 mg/mL, 0.1 mg/mL, 0.5 mg/mL, and 1 mg/mL, respectively, and proliferation of the RAK3599 strain was investigated.
Phenylalanine concentration in the aY-AID culture medium was adjusted to 0, 0.01, 0.1, 0.5, and 1 mg/mL, respectively, and proliferation of the RAK3599 strain was investigated.
Valine concentration in the aY-AID culture medium was adjusted to 0, 0.01, 0.1, 0.5, and 1 mg/mL, respectively, and proliferation of the RAK3599 strain was investigated.
Serine concentration in the AID culture medium was adjusted to 0, 0.01 mg/mL, 0.1 mg/mL, 0.5 mg/mL, and 1 mg/mL, respectively, and proliferation of the RAK3599 strain was investigated.
Threonine concentration in the AID culture medium was adjusted to 0, 0.01, 0.1, 0.5, and 1 mg/mL, respectively, and proliferation of the RAK3599 strain was investigated.
Asparagine concentration in the AID culture medium was adjusted to 0, 0.01, 0.1, 0.5, and 1 mg/mL, respectively, and proliferation of the RAK3599 strain was investigated.
An investigation was conducted into vitamins contained in the AID culture medium. […]

Setting [1] is: aY-AID culture medium, concentration of the substance 0.
The mark [2] stands for this setting: aY-AID culture medium, concentration of the substance 0.01 mg/mL.
Where [3] appears, read: aY-AID culture medium, concentration of the substance 0.1 mg/mL.
[4] abbreviates: aY-AID culture medium, concentration of the substance 0.5 mg/mL.
The mark [5] stands for this setting: aY-AID culture medium, concentration of the substance 1 mg/mL.

Structures are written as SMILES.

As for `C[C@H](N)C(=O)O` [Alanine, L-Alanine], the “effect on proliferation when added at high concentrations” value (from here on “effect on proliferation when added”) (AID culture medium) was “a positive influence was imparted to proliferation”. The “content at which the slope of the proliferation curve is greatest” value (aY-AID culture medium) is “around 1 mg/mL”. Moreover, the “OD600 after 24 hours” value was 17 (aY-AID culture medium, alanine 0 mg/mL); 18 (aY-AID culture medium, alanine 0.1 mg/mL); 18 (aY-AID culture medium, alanine 1 mg/mL); 17 (aY-AID culture medium, alanine 5 mg/mL); 18 (aY-AID culture medium, alanine 10 mg/mL).
As for `NC(=O)C[C@H](N)C(=O)O.O` [Asparagine, L-Asparagine monohydrate], the “preferred concentration / content” value is “around 0.5 g/L”. For the same compound, the “OD600 after 24 hours” value (AID culture medium, asparagine 0 mg/mL) turned out to be 15. The “OD600 after 24 hours” value (AID culture medium, asparagine 0.01 mg/mL) was determined as 16. Further, the “OD600 after 24 hours” value (AID culture medium, asparagine 0.1 mg/mL) came to 16. The “OD600 after 24 hours” value (AID culture medium, asparagine 0.5 mg/mL) turned out to be 17. The “OD600 after 24 hours” value (AID culture medium, asparagine 1 mg/mL) worked out at 16. Also, under “AID culture medium”, the “effect on proliferation when added” value is listed as “proliferation was confirmed to be inhibited”.
`CC[C@H](C)[C@H](N)C(=O)O` [Isoleucine, L-Isoleucine]: the “preferred concentration / content” value is “around 1 g/L”. For the setting “AID culture medium”, the “effect on proliferation when added” value is “a positive influence was imparted to proliferation”. Moreover, the “OD600 after 24 hours” value under setting [1] came to 16. Besides, the “OD600 after 24 hours” value under setting [2] is 17. For the same compound, the “OD600 after 24 hours” value under setting [3] came to 16. Moreover, the “OD600 after 24 hours” value under setting [4] amounted to 17. In addition, the “OD600 after 24 hours” value under setting [5] worked out at 19.
With `N[C@@H](Cc1ccccc1)C(=O)O` [Phenylalanine, L-Phenylalanine], the “preferred concentration / content” value is on record as “around 1 g/L”. Where the note is “AID culture medium”, the “effect on proliferation when added” value was “a positive influence was imparted to proliferation”. Further, the “OD600 after 24 hours” value under setting [1] is given as 17. Besides, the “OD600 after 24 hours” value under setting [2] is given as 17. Also, the “OD600 after 24 hours” value under setting [3] came out at 19. For the same compound, the “OD600 after 24 hours” value under setting [4] was found to be 19. Also, the “OD600 after 24 hours” value under setting [5] was 19.
As for `N[C@@H](CO)C(=O)O` [Serine, L-Serine], the “preferred concentration / content” value is listed as “around 0.5 g/L”. Where the note is “AID culture medium”, the “content at which proliferation particularly increased” value is “around 0.5 mg/mL” and the “effect on proliferation when added” value is recorded as “a positive influence was imparted to proliferation”.
Turning to `CC(C)[C@H](N)C(=O)O` [Valine, L-VALINE], the “preferred concentration / content” value is “around 1 g/L”. Also, the “effect on proliferation when added” value (AID culture medium) is reported as “a positive influence was imparted to proliferation”. Under setting [1], the “OD600 after 24 hours” value amounted to 16. Also, under setting [2], the “OD600 after 24 hours” value came to 15. Under setting [3], the “OD600 after 24 hours” value is given as 15. In addition, the “OD600 after 24 hours” value under setting [4] amounted to 16. Besides, the “OD600 after 24 hours” value under setting [5] came out at 16.
As to `CC(=O)N[C@@H](Cc1ccc(O)cc1)C(=O)O` [acetyl tyrosine, N-acetyl tyrosine], the “preferred concentration / content” value is given as “about 1 g/L”. Further, the “OD600 after 24 hours” value (AID culture medium, acetyl tyrosine 0 mg/mL) is on record as 13. In addition, the “OD600 after 24 hours” value (AID culture medium, acetyl tyrosine 0.01 mg/mL) turned out to be 14. Under “AID culture medium, acetyl tyrosine 0.1 mg/mL”, the “OD600 after 24 hours” value worked out at 15. For the setting “AID culture medium, acetyl tyrosine 0.5 mg/mL”, the “OD600 after 24 hours” value was determined as 14. In addition, the “OD600 after 24 hours” value (AID culture medium, acetyl tyrosine 1 mg/mL) is 15. For the same compound, the “OD600 after 24 hours” value (AID culture medium, acetyl tyrosine 2 mg/mL) is on record as 18.
Regarding `Nc1ccc(C(=O)O)cc1` [para-aminobenzoic acid], the effect on proliferation result (vitamins contained in the AID culture medium (FIG. 38)) is reported as “no effect to particularly increase proliferation”.
`NCCC(=O)O` [β-alanine]: the “substitution potential of pantothenic acid” value (AID culture medium (FIG. 39A)) is given as “confirmed to be substituted with pantothenic acid”. In addition, the “concentration capable of substitution with pantothenic acid” value (AID culture medium (FIG. 39B)) is at least 0.4 µg/mL.

These data come from patent US10023836B2, “Medium for yeasts” (YAMAGUCHI UNIVERSITY, priority 2012, dated 2018).
